# From patent US20230125482A1, “PROTEIN KINASE C MODULATORS” (Young Therapeutics, LLC, priority 2020, published 2023)
# Where a SMILES comes first, the peptide text is derived from it. The star is where a group is joined. Myristoyl = CCCCCCCCCCCCCC(=O)*
# Tests used:
# Solubility of peptide = format: physicochemical
# isolated rat hearts = experiment: Myocardial ischemia/reperfusion (I/R) injury in isolated rat hearts (Langendorff, ex vivo); settings: for Final Coronary Flow / Final Heart Rate / Final LVDP / Final LVEDP / Final LVESP / Final dP/dtmax / Final dP/dtmin: 50 min post-reperfusion; for Infarct Size: I(30 min)/R(50 min), infarct tissue weight/total tissue weight; for Initial Coronary Flow / Initial Heart Rate / Initial LVDP / Initial LVEDP / Initial LVESP / Initial dP/dtmax / Initial dP/dtmin: baseline before ischemia
# Protocol: Rat hearts were isolated from anesthetized male Sprague Dawley rats (275-325 g), placed in ice-cold Krebs' buffer, and placed onto a Langendorff heart apparatus and retro perfused with Krebs' buffer at a constant pressure of 80 mmHg (FIG. 1). A pressure transducer measures heart rate, left ventricular end-systolic pressure, end-diastolic pressure, dP/dt max, and dP/dt min. Coronary flow is measured via a flow probe connected to the perfusion tubing. Cardiac function was recorded throughout the experimental protocol using a pressure transducer inserted into the left ventricle (15 min baseline; global I(30 min)/R(50 min)). Selected peptides of TABLE 1 or vehicle (control [0.05 to 0.2% Dimethylsulfoxide) were given during the first 5 min of reperfusion. All peptide inhibitors or activators were dissolved in 28% DMSO and the final concentration of DMSO with peptides or without peptides (control I/R hearts) delivered to all hearts was 0.06%. Statistical analysis was performed using ANOVA and Bonferroni-Dunn post-hoc test.
# At the end of the experimental protocol, hearts were removed from the Langendorff apparatus, and frozen for 30 min at −20° C. Hearts were sectioned (2 mm) from base to apex and placed in 1% TTC for ˜10 min at 37° C. Viable tissue stained red and infarcted tissue was unstained (pale). Total tissue sections were weighed and infarcted tissue was separated from viable tissue and weighed to determine infarct size (i.e. infarct tissue weight/total tissue weight).
structure (smiles),measurement,setting,value
CCCCCCCCCCCCCC(=O)N[C@@H](Cc1ccc(O)cc1)C(=O)NCC(=O)N[C@@H](CCCNC(=N)N)C(=O)N[C@@H](CCCCN)C(=O)N[C@@H](CCCCN)C(=O)N[C@@H](CCCNC(=N)N)C(=O)N[C@@H](CCCNC(=N)N)C(=O)N[C@@H](CCC(N)=O)C(=O)N[C@@H](CCCNC(=N)N)C(=O)N[C@@H](CCCNC(=N)N)C(=O)N[C@@H](CCCNC(=N)N)C(=O)N[C@@H](CS)C(=O)N[C@@H](CS)C(=O)N[C@@H](CCC(=O)O)C(=O)N[C@@H](C)C(=O)N[C@H](C(=O)N[C@@H](CO)C(=O)N[C@@H](CC(C)C)C(=O)N[C@@H](CCCCN)C(=O)N1CCC[C@H]1C(=O)N[C@H](C(=O)O)[C@@H](C)O)C(C)C [Myr + TAT + PKCε-] (Myristoyl-YGRKKRRQRRRCCEAVSLKPT-OH; C-terminus assumed),solubility,Solubility of peptide,≤ 100 mM
same,Final Coronary Flow,isolated rat hearts; 100 pM,10 ± 1 mL/min
same,Final Heart Rate,isolated rat hearts; 100 pM,252 ± 8 BPM
same,Final LVDP,isolated rat hearts; 100 pM,47 ± 11 mmHg
same,Final LVEDP,isolated rat hearts; 100 pM,47 ± 10 mmHg
same,Final LVESP,isolated rat hearts; 100 pM,94 ± 14 mmHg
same,Final dP/dtmax,isolated rat hearts; 100 pM,1021 ± 246 mmHg/s
same,Final dP/dtmin,isolated rat hearts; 100 pM,−688 ± 142 mmHg/s
same,Infarct Size,isolated rat hearts; 100 pM,18 ± 1%
same,Initial Coronary Flow,isolated rat hearts; 100 pM,18 ± 2 mL/min
same,Initial Heart Rate,isolated rat hearts; 100 pM,285 ± 6 BPM
same,Initial LVDP,isolated rat hearts; 100 pM,89 ± 3 mmHg
same,Initial LVEDP,isolated rat hearts; 100 pM,10 ± 0.4 mmHg
same,Initial LVESP,isolated rat hearts; 100 pM,100 ± 3 mmHg
same,Initial dP/dtmax,isolated rat hearts; 100 pM,2457 ± 37 mmHg/s
same,Initial dP/dtmin,isolated rat hearts; 100 pM,−1726 ± 49 mmHg/s
same,Final Coronary Flow,isolated rat hearts; 1 nM,10 ± 1 mL/min
same,Final Heart Rate,isolated rat hearts; 1 nM,266 ± 6 BPM
same,Final LVDP,isolated rat hearts; 1 nM,49 ± 8 mmHg
same,Final LVEDP,isolated rat hearts; 1 nM,52 ± 9 mmHg
same,Final LVESP,isolated rat hearts; 1 nM,101 ± 9 mmHg
same,Final dP/dtmax,isolated rat hearts; 1 nM,1147 ± 156 mmHg/s
same,Final dP/dtmin,isolated rat hearts; 1 nM,−733 ± 68 mmHg/s
same,Infarct Size,isolated rat hearts; 1 nM,10 ± 2 %
same,Initial Coronary Flow,isolated rat hearts; 1 nM,18 ± 1 mL/min
same,Initial Heart Rate,isolated rat hearts; 1 nM,293 ± 13 BPM
same,Initial LVDP,isolated rat hearts; 1 nM,91 ± 4 mmHg
same,Initial LVEDP,isolated rat hearts; 1 nM,10 ± 1 mmHg
same,Initial LVESP,isolated rat hearts; 1 nM,101 ± 5 mmHg
same,Initial dP/dtmax,isolated rat hearts; 1 nM,2440 ± 72 mmHg/s
same,Initial dP/dtmin,isolated rat hearts; 1 nM,−1674 ± 106 mmHg/s
same,Final Coronary Flow,isolated rat hearts; 30 nM,9 ± 1 mL/min
same,Final Heart Rate,isolated rat hearts; 30 nM,261 ± 11 BPM
same,Final LVDP,isolated rat hearts; 30 nM,48 ± 10 mmHg
same,Final LVEDP,isolated rat hearts; 30 nM,50 ± 15 mmHg
same,Final LVESP,isolated rat hearts; 30 nM,108 ± 3 mmHg
same,Final dP/dtmax,isolated rat hearts; 30 nM,1059 ± 336 mmHg/s
same,Final dP/dtmin,isolated rat hearts; 30 nM,−733 ± 99 mmHg/s
same,Infarct Size,isolated rat hearts; 30 nM,14 ± 2%
same,Initial Coronary Flow,isolated rat hearts; 30 nM,16 ± 1 mL/min
same,Initial Heart Rate,isolated rat hearts; 30 nM,271 ± 7 BPM
same,Initial LVDP,isolated rat hearts; 30 nM,88 ± 2 mmHg
same,Initial LVEDP,isolated rat hearts; 30 nM,11 ± 1 mmHg
same,Initial LVESP,isolated rat hearts; 30 nM,99 ± 2 mmHg
same,Initial dP/dtmax,isolated rat hearts; 30 nM,2344 ± 22 mmHg/s
same,Initial dP/dtmin,isolated rat hearts; 30 nM,−1588 ± 18 mmHg/s
same,restoration of post-reperfused cardiac function compared to control I/R hearts,"isolated rat hearts; 100 nM given at the beginning of reperfusion for 5 minutes, 25 to 50 min",significantly restored post-reperfused cardiac function
same,Final Coronary Flow,isolated rat hearts; 100 nM,11 ± 2 mL/min
same,Final Heart Rate,isolated rat hearts; 100 nM,254 ± 12 BPM
same,Final LVDP,isolated rat hearts; 100 nM,66 ± 6 mmHg
same,Final LVEDP,isolated rat hearts; 100 nM,48 ± 13 mmHg
same,Final LVESP,isolated rat hearts; 100 nM,114 ± 11 mmHg
same,Final dP/dtmin,isolated rat hearts; 100 nM,−981 ± 135 mmHg/s
same,Infarct Size,isolated rat hearts; 100 nM,8 ± 2 %
same,Initial Coronary Flow,isolated rat hearts; 100 nM,20 ± 2 mL/min
same,Initial Heart Rate,isolated rat hearts; 100 nM,301 ± 10 BPM
same,Initial LVDP,isolated rat hearts; 100 nM,89 ± 4 mmHg
same,Initial LVEDP,isolated rat hearts; 100 nM,9 ± 1 mmHg
same,Initial LVESP,isolated rat hearts; 100 nM,98 ± 3 mmHg
same,Initial dP/dtmax,isolated rat hearts; 100 nM,2528 ± 133 mmHg/s
same,Initial dP/dtmin,isolated rat hearts; 100 nM,−1807 ± 125 mmHg/s
same,Final Coronary Flow,isolated rat hearts; 1 μM,10 ± 3 mL/min
same,Final Heart Rate,isolated rat hearts; 1 μM,296 ± 86 BPM
same,Final LVDP,isolated rat hearts; 1 μM,40 ± 15 mmHg
same,Final LVEDP,isolated rat hearts; 1 μM,60 ± 12 mmHg
same,Final LVESP,isolated rat hearts; 1 μM,101 ± 6 mmHg
same,Final dP/dtmax,isolated rat hearts; 1 μM,794 ± 220 mmHg/s
same,Final dP/dtmin,isolated rat hearts; 1 μM,−616 ± 122 mmHg/s
same,Infarct Size,isolated rat hearts; 1 μM,5 ± 2 %
same,Initial Coronary Flow,isolated rat hearts; 1 μM,21 ± 1 mL/min
same,Initial Heart Rate,isolated rat hearts; 1 μM,274 ± 15 BPM
same,Initial LVDP,isolated rat hearts; 1 μM,94 ± 5 mmHg
same,Initial LVEDP,isolated rat hearts; 1 μM,10 ± 2 mmHg
same,Initial LVESP,isolated rat hearts; 1 μM,104 ± 6 mmHg
same,Initial dP/dtmax,isolated rat hearts; 1 μM,2493 ± 128 mmHg/s
same,Initial dP/dtmin,isolated rat hearts; 1 μM,−1786 ± 97 mmHg/s
same,cardio depressive effect on post-reperfused cardiac function compared to all other groups,isolated rat hearts; 10 μM,most cardio depressive effect
same,reduction of infarct size compared to control I/R hearts,isolated rat hearts; 10 μM,reduced infarct size
same,stunning concentration relative to the concentration needed to produce a 50% reduction in infarct size,isolated rat hearts; 10 μM,"10,000 times"
same,stunning of the heart during reperfusion,isolated rat hearts; 10 μM,caused stunning
same,effect on reducing infarct size,isolated rat hearts; 10 μM and 1 μM,most robust effect on reducing infarct size
same,Final Coronary Flow,isolated rat hearts; 10 μM,0 mL/min
same,Final Heart Rate,isolated rat hearts; 10 μM,811 ± 79 BPM
same,Final LVDP,isolated rat hearts; 10 μM,1 ± 0.2 mmHg
same,Final LVEDP,isolated rat hearts; 10 μM,68 ± 17 mmHg
same,Final LVESP,isolated rat hearts; 10 μM,69 ± 17 mmHg
same,Final dP/dtmax,isolated rat hearts; 10 μM,54 ± 14 mmHg/s
same,Final dP/dtmin,isolated rat hearts; 10 μM,−56 ± 14 mmHg/s
same,Infarct Size,isolated rat hearts; 10 μM,5 ± 2 %
same,Initial Coronary Flow,isolated rat hearts; 10 μM,18 ± 2 mL/min
same,Initial Heart Rate,isolated rat hearts; 10 μM,285 ± 24 BPM
same,Initial LVDP,isolated rat hearts; 10 μM,92 ± 3 mmHg
same,Initial LVEDP,isolated rat hearts; 10 μM,8 ± 2 mmHg
same,Initial LVESP,isolated rat hearts; 10 μM,101 ± 4 mmHg
same,Initial dP/dtmax,isolated rat hearts; 10 μM,2540 ± 158 mmHg/s
same,Initial dP/dtmin,isolated rat hearts; 10 μM,−1772 ± 141 mmHg/s
same,"minimum effective concentration, tissue-salvaging effects (infarct size)",isolated rat hearts; ex vivo rat I/R hearts,1 nM
same,decrease in minimum effective concentration (increase in potency to reduce infarct size) as compared to Myr+PKCε−,"isolated rat hearts; infarct size, FIG. 3","10,000 ×"
